# Results taken from patent US20090291942A1, “IMIDAZO PYRIDINE DERIVATIVES” (priority 2008, published 2009).
# Where a name gives a salt, the structure may show the parent alone.
# Molecular target: T1, human GPR4 (Homo sapiens, UniProt P46093)
# T1 construct: expressed in transfected cells
# Assay: Cell-based assay for human GPR4 activity (pH-induced cAMP formation, HTRF)
# Conditions: HeLa cells stably expressing human GPR4, pH-induced cAMP formation
# Method in brief: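 HeLa cells stably expressing human GPR4, pre-incubated 15 min at room temperature with compound in pH 8 buffer containing 2 mM IBMX. Buffer B added to set the final stimulation pH, then a further 15 min at room temperature; cAMP read by HTRF.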
# T1 sequence (P46093 whole entry): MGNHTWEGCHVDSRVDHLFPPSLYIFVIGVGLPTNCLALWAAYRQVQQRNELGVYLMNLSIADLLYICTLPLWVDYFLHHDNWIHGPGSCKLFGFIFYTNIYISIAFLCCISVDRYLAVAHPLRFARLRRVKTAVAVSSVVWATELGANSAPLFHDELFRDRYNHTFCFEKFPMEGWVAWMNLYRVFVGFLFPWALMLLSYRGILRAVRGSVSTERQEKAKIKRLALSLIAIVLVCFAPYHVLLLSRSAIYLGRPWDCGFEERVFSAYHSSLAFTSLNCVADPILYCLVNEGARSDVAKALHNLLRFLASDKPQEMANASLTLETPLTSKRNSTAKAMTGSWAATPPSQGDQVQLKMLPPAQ
row,SMILES,IC50
1,"CCc1nc2c(C)cc(C)nc2n1Cc1ccc(/C=C/CN2CCC(N3CCCCC3)CC2)cc1 [Example 33, 1′-{(E)-3-[4-(2-Ethyl-5,7-dimethyl-imidazo[4,5-b]pyridin-3-ylmethyl)-phenyl]-allyl}-[1,4′]bipiperidinyl dihydrochloride]",0.071 µM
2,"CCc1nc2c(C)cc(C)nc2n1Cc1ccc(/C=C/CN2CCN(CC(=O)N(C)C)CC2)cc1 [Example 65, 2-(4-{(E)-3-[4-(2-Ethyl-5,7-dimethyl-imidazo[4,5-b]pyridin-3-ylmethyl)-phenyl]-allyl}-piperazin-1-yl)-N,N-dimethyl-acetamide]",0.647 µM
3,"CCc1nc2c(C)cc(C)nc2n1Cc1ccc(/C=C/CCN2CCC(N3CCOCC3)CC2)cc1 [Example 108, 2-Ethyl-5,7-dimethyl-3-{4-[(E)-4-(4-morpholin-4-yl-piperidin-1-yl)-but-1-enyl]-benzyl}-3H-imidazo[4,5-b]pyridine dihydrochloride]",0.447 µM
4,"Cc1cc(C)c2nc(C(C)C)n(Cc3ccc(/C=C/CN4CCC(N5CCCCC5)CC4)cc3)c2n1 [Example 83, 1′-{(E)-3-[4-(2-Isopropyl-5,7-dimethyl-imidazo[4,5-b]pyridin-3-ylmethyl)-phenyl]-allyl}-[1,4′]bipiperidinyl dihydrochloride]",0.294 µM
5,"CCc1nc2c(C)cc(C)nc2n1Cc1ccc(/C=C/C(=O)N2CCC(N3CCOCC3)CC2)cc1 [Example 98, (E)-3-[4-(2-Ethyl-5,7-dimethyl-imidazo[4,5-b]pyridin-3-ylmethyl)-phenyl]-1-(4-morpholin-4-yl-piperidin-1-yl)-propenone]",0.328 µM
6,"CCc1nc2c(C)cc(C)nc2n1Cc1ccc(CCCN2CCN(CCC(C)C)CC2)cc1 [Example 16, 2-Ethyl-5,7-dimethyl-3-(4-{3-[4-(3-methyl-butyl)-piperazin-1-yl]-propyl}-benzyl)-3H-imidazo[4,5-b]pyridine]",0.283 µM
7,"CCCCc1nc2c(C)cc(C)nc2n1Cc1ccc(/C=C/CN2CCC(N3CCCCC3)CC2)cc1 [Example 86, 1′-{(E)-3-[4-(2-Butyl-5,7-dimethyl-imidazo[4,5-b]pyridin-3-ylmethyl)-phenyl]-allyl}-[1,4′]bipiperidine dihydrochloride]",0.481 µM
8,"CCc1nc2c(C)cc(C)nc2n1Cc1ccc(CCCN2CCN(C(C)C)C(C)C2)cc1 (stereo not shown) [Example 23, 2-Ethyl-3-{4-[3-(4-isopropyl-3-methyl-piperazin-1-yl)-propyl]-benzyl}-5,7-dimethyl-3H-imidazo[4,5-b]pyridine]",0.253 µM

# Results, then the compound that gave them:
row,IC50,SMILES
1,0.03 µM,"Cc1cc(C)c2nc(C(F)(F)F)n(Cc3ccc(/C=C/CN4CCN(C(C)(C)C)CC4)cc3)c2n1 [Example 92, 3-{4-[(E)-3-(4-tert-Butyl-piperazin-1-yl)-propenyl]-benzyl}-5,7-dimethyl-2-trifluoromethyl-3H-imidazo[4,5-b]pyridine]"
2,0.223 µM,"CCc1nc2c(C)cc(C)nc2n1Cc1ccc(CCCN2CCN(CC)C(C)C2)cc1 (stereo not shown) [Example 22, 2-Ethyl-3-{4-[3-(4-ethyl-3-methyl-piperazin-1-yl)-propyl]-benzyl}-5,7-dimethyl-3H-imidazo[4,5-b]pyridine dihydrochloride]"
3,0.194 µM,"CCc1nc2c(C)cc(C)nc2n1Cc1ccc(/C=C/CN2CCOC(CNC(C)C)C2)cc1 (stereo not shown) [Example 79, (4-{(E)-3-[4-(2-Ethyl-5,7-dimethyl-imidazo[4,5-b]pyridin-3-ylmethyl)-phenyl]-allyl}-morpholin-2-ylmethyl)-isopropyl-amine]"
4,0.094 µM,"Cc1cc(C)c2nc(C)n(Cc3ccc(/C=C/CN4CCC(N5CCCCC5)CC4)cc3)c2n1 [Example 30, 1′-{(E)-3-[4-(2,5,7-Trimethyl-imidazo[4,5-b]pyridin-3-ylmethyl)-phenyl]-allyl}-[1,4′]bipiperidinyl]"
5,0.194 µM,"CCCCN1CCN(C/C=C/c2ccc(Cn3c(CC)nc4c(C)cc(C)nc43)cc2)CC1 [Example 48, 3-{4-[(E)-3-(4-Butyl-piperazin-1-yl)-propenyl]-benzyl}-2-ethyl-5,7-dimethyl-3H-imidazo[4,5-b]pyridine dihydrochloride]"
6,0.039 µM,"CCCN1CCN(CCCc2ccc(Cn3c(CC)nc4c(C)cc(C)nc43)cc2)CC1 [Example 7, 2-Ethyl-5,7-dimethyl-3-{4-[3-(4-propyl-piperazin-1-yl)-propyl]-benzyl}-3H-imidazo[4,5-b]pyridine]"
7,0.098 µM,"CCc1nc2c(C)cc(C)nc2n1Cc1ccc(CCCCN2CCN(C(C)(C)C)CC2)cc1 [Example 110, 3-{4-[4-(4-tert-Butyl-piperazin-1-yl)-butyl]-benzyl}-2-ethyl-5,7-dimethyl-3H-imidazo[4,5-b]pyridine dihydrochloride]"
8,0.182 µM,"CCc1nc2c(C)cc(C)nc2n1Cc1ccc(/C=C/CN2CCC(N3CCOCC3)CC2)cc1 [Example 34, 2-Ethyl-5,7-dimethyl-3-{4-[(E)-3-(4-morpholin-4-yl-piperidin-1-yl)-propenyl]-benzyl}-3H-imidazo[4,5-b]pyridine dihydrochloride]"
9,0.199 µM,"Cc1cc(C)c2nc(C(F)(F)F)n(Cc3ccc(/C=C/CN4CCC(N5CCN(C)CC5)CC4)cc3)c2n1 [Example 88, 5,7-Dimethyl-3-(4-{(E)-3-[4-(4-methyl-piperazin-1-yl)-piperidin-1-yl]-propenyl}-benzyl)-2-trifluoromethyl-3H-imidazo[4,5-b]pyridine trihydrochloride]"
10,0.201 µM,"CCc1nc2c(C)cc(C)nc2n1Cc1ccc(/C=C/CN2CCN(CC)C(C)C2)cc1 (stereo not shown) [Example 69, 2-Ethyl-3-{4-[(E)-3-(4ethyl-3-methyl-piperazin-1-yl)-propenyl]-benzyl}-5,7-dimethyl-3H-imidazo[4,5-b]pyridine dihydrochloride]"
11,0.073 µM,"CCc1nc2c(C)cc(C)nc2n1Cc1ccc(C#CCN2CCC(N3CCCCC3)CC2)cc1 [Example 2, 1′-{3-[4-(2-Ethyl-5,7-dimethyl-imidazo[4,5-b]pyridin-3-ylmethyl)-phenyl]-prop-2-ynyl}-[1,4′]bipiperidine]"
12,0.1 µM,"CCc1nc2c(C)cc(C)nc2n1Cc1ccc(/C=C/CN2CCN(C(C)CC)CC2)cc1 (stereo not shown) [Example 49, 3-{4-[(E)-3-(4-sec-Butyl-piperazin-1-yl)-propenyl]-benzyl}-2-ethyl-5,7-dimethyl-3H-imidazo[4,5-b]pyridine]"

# Test system: mouse antigen-induced arthritis
# Assay: Mouse antigen-induced arthritis model
# Format: in vivo
# Conditions: female OFA-1 mice, 50 mg/kg (bid) po from day 0 for 7 days, R/L knee swelling ratio AUC vs control
# Description: c) GPR4 Activity in Mouse Antigen-Induced Arthritis Model
# Female OFA-1 mice were sensitized i.d. on the back at two sites to methylated bovine serum albumin (mBSA) homogenize 1:1 with complete Freund's adjuvant on days—21 and —14 (0.1 ml containing 1 mg/ml mBSA). On day 0, the right knee receives 10 μl of 10 mg/ml mBSA in 5% glucose solution (antigen-injected knee), while the left knee receives 10 μl of 5% glucose solution alone (vehicle-injected knee). The diameters of the left and right knees were then measured using callipers immediately after the intra-articular injections and again on days 2, 4, 7, 9, 11 and 14. Vehicle and compounds were applied po starting at day 0 for 7 days. Right knee swelling was evaluated relative to left knee swelling, and the R/L knee swelling ratio plotted against time to give area under the curve (AUC) graphs for control and treatment groups. The percentage inhibition of the individual treatment group AUCs were calculated vs the control group AUC (0% inhibition) using an excel spreadsheet. On day 7, the mice were killed by CO2 inhalation and the right and left knees removed and processed for histological analysis.
row,SMILES,Δ swelling ratio
1,"CCc1nc2c(C)cc(C)nc2n1Cc1ccc(/C=C/CN2CCC(N3CCCCC3)CC2)cc1 [Example 33, 1′-{(E)-3-[4-(2-Ethyl-5,7-dimethyl-imidazo[4,5-b]pyridin-3-ylmethyl)-phenyl]-allyl}-[1,4′]bipiperidinyl dihydrochloride]",59%

# Test system: VEGF-induced angiogenesis
# Assay: GPR4 activity in VEGF-induced angiogenesis (angiogenesis growth factor implant model)
# Format: in vivo
# Conditions: mice, 10 mg/kg (qd) po, chamber tissue weighed on 4th day after implantation
# Description: The functional activity of GPR4 was determined in the angiogenesis growth factor implant model. Porous tissue chambers made of perfluoro-alkoxy-Teflon were filled with 0.8% agar and 20 U/ml heparin supplemented with or without 8 μg/ml recombinant human VEGF. The solutions were maintained at 39° C. prior to the filling procedure. Mice were anesthetized using 3% isoflurane inhalation. For subcutaneous implantation, a small skin incision was made at the base of the tail to allow the insertion of an implant trocar. The chamber was implanted under aseptic conditions through the small incision onto the back of the animal. The skin incision was closed by wound clips. On the 4th day after implantation, animals were sacrificed using CO2. Chambers were excised and the vascularized fibrous tissue formed around each implant carefully removed and weighed. Body weight was used to monitor the general condition of the mice. The compounds were applied po at the day of the chamber implantation.
row,SMILES,Δ tissue weight
1,"CCc1nc2c(C)cc(C)nc2n1Cc1ccc(/C=C/CN2CCC(N3CCCCC3)CC2)cc1 [Example 33, 1′-{(E)-3-[4-(2-Ethyl-5,7-dimethyl-imidazo[4,5-b]pyridin-3-ylmethyl)-phenyl]-allyl}-[1,4′]bipiperidinyl dihydrochloride]",45%
